In brackets after ≈: the same amount, converted by molar mass. Where two headings read alike, the source gives them in different places.
Experiments:
[1] = tested on: human normal liver cell line WRL-68; test: MTT cell viability assay, WRL68; type: cell-based; conditions: 24 h treatment
Procedure: (§1) A549, PC3, MCF-7, HT-29, WRL68 and MCF-7 cells were obtained from the ATTC (Rockville, MD, USA) and grown in RPMI-1640 medium, 10% fetal bovine serum (FBS) and 1% pen-strep, in humidified conditions at 5% CO2 and 37 °C. The different cell lines mentioned above were used to determine the inhibitory effects of compounds on cell growth using the MTT assay. This colorimetric assay is based on the conversion of the yellow tetrazolium bromide (MTT) to a purple formazan derivative by mitochondrial succinate dehydrogenase in viable cells. Cells were seeded in 96-well plate and incubated for 24 h at 37 °C with 5% CO2 saturation. After incubation, the cells were treated with different concentration of compounds and incubated for another 24 h. After 24 h of drug treatment, 20 µL of MTT solution at 5 mg/mL was added and incubated for 4 h. Dimethyl sulfoxide (DMSO) in volume of 100 µL is added into each well to dissolve the purple formazan formed. The colorimetric assay is measured and recorded at absorbance of 570 nm.

[2] = tested on: MCF-7 (breast), A549 (lung), PC3 (prostate), HT-29 (colorectal) and WRL68 (liver); test: MTT assay, summary over all five cell lines; type: cell-based, human; conditions: for IC50: Homo sapiens
Procedure: as §1

[3] = tested on: human breast adenocarcinoma cell line MCF-7; test: MTT cell viability assay, MCF-7; type: cell-based; conditions: MCF7, 24 h treatment
Procedure: as §1

[4] = tested on: human adenocarcinoma cell line HT-29 (colorectal cancer); test: MTT cell viability assay, HT-29; type: cell-based; conditions: 24 h treatment
Procedure: as §1

[5] = tested on: human lung adenocarcinoma cell line A549; test: MTT cell viability assay, A549; type: cell-based; conditions: 24 h treatment
Procedure: as §1

[6] = tested on: human prostate cancer cell line PC3; test: MTT cell viability assay, PC3; type: cell-based; conditions: 24 h treatment
Procedure: as §1

[7] = all cell lines except for the A549 cell line, MTT, read-out: IC50 in all cell lines except A549

Row | SMILES | IC50 [3] [µg/mL] | IC50 [4] [µg/mL] | IC50 [5] [µg/mL] | IC50 [6] [µg/mL] | melting point [°C] | IC50 ([2]; all five cell lines, MTT, read-out: IC50 in all cell lines) [µg/mL] | IC50 [2, 7] [µg/mL] | IC50 [1] [µg/mL] | cytotoxic effect in words ([2]; all cell lines, MTT) | cytotoxic effect in words [2]
1 | O=C(/C=C/c1ccccc1Cl)c1ccc(O)cc1 [Compound 6, 3-(2-Chlorophenyl)-(4-hydroxyphenyl)-propenone] | 10 ± 1.4 (≈ 38.7 µM) | 15.5 (≈ 60 µM) | 25.2 ± 1.21 (≈ 97.5 µM) | 11 ± 1.8 (≈ 42.5 µM) | – | – | – | 13.2 ± 1.3 (≈ 51.1 µM) | – | –
2 | Cc1ccc(C(=O)/C=C/c2ccccc2Cl)cc1 [Compound 7, 3-(2-Chlorophenyl)-1-P-tolylpropenone] | > 100 | > 100 | > 100 | > 100 | 50 to 51 | – | – | > 100 | – | low cytotoxic effects
3 | Cc1cccc(/C=C/C(=O)c2ccccc2)c1 [Compound 9, 1-Phenyl-3-m-tolylpropenone] | 9.34 ± 0.56 (≈ 42 µM) | 19 ± 1.5 (≈ 85.3 µM) | 24.7 ± 2 (≈ 111 µM) | 9.4 ± 1.9 (≈ 42.3 µM) | 68 to 70 | – | – | 9.78 ± 1.01 (≈ 44 µM) | – | –
4 | Cc1cccc(/C=C/C(=O)c2ccc(O)cc2)c1 [Compound 10, 1-(4-Hydroxyphenyl)-3-m-tolylpropenone] | 8.34 ± 0.472 (≈ 35 µM) | 12.1 ± 3 (≈ 50.8 µM) | 19.7 ± 1.22 (≈ 82.6 µM) | 13.7 ± 1.1 (≈ 57.5 µM) | – | < 20 | – | 13.4 ± 2.09 (≈ 56.4 µM) | – | high cytotoxicity
5 | Cc1ccc(C(=O)/C=C/c2cccc(C)c2)cc1 [Compound 11, 3-m-Tolyl-1-p-tolylpropenone] | 10.2 ± 1.89 (≈ 43 µM) | 16.3 ± 1.9 (≈ 69 µM) | 24.9 ± 1.9 (≈ 105 µM) | 8.73 ± 0.21 (≈ 36.9 µM) | – | – | < 20 | 13.9 ± 1.3 (≈ 59 µM) | – | –
6 | COc1ccc(/C=C/C(=O)c2ccccc2)cc1 [Compound 13, 3-(4-Methoxyphenyl)-1-phenylpropenone] | 11.62 ± 0.101 (≈ 48.8 µM) | 22.8 ± 2.3 (≈ 95.6 µM) | 32.6 ± 2.5 (≈ 137 µM) | 12.1 ± 0.99 (≈ 50.7 µM) | – | – | – | 21.5 ± 1.7 (≈ 90.1 µM) | – | –

Continued, in another order:

Row | IC50 [3] [µg/mL] | IC50 [4] [µg/mL] | IC50 [5] [µg/mL] | IC50 [6] [µg/mL] | melting point [°C] | IC50 ([2]; all five cell lines, MTT, read-out: IC50 in all cell lines) [µg/mL] | IC50 [2, 7] [µg/mL] | SMILES | IC50 [1] [µg/mL] | cytotoxic effect in words ([2]; all cell lines, MTT) | cytotoxic effect in words [2]
7 | > 100 | > 100 | > 100 | > 100 | – | – | – | O=C(/C=C/c1ccccc1)c1ccc(O)cc1 [Compound 2, 1-(4-Hydroxyphenyl)-3-phenylpropenone] | > 100 | low cytotoxic effects | –
8 | 13.6 ± 1.01 (≈ 61.3 µM) | 19.1 ± 1 (≈ 85.9 µM) | 36.6 ± 1.76 (≈ 165 µM) | 17.3 ± 1.1 (≈ 77.8 µM) | – | – | – | Cc1ccc(C(=O)/C=C/c2ccccc2)cc1 [Compound 3, 3-Phenyl-1-p-tolylpropenone] | 21.3 ± 3.01 (≈ 96 µM) | – | –
9 | 19.1 ± 1 (≈ 80.4 µM) | 37.3 ± 2.81 (≈ 156 µM) | 77 ± 2.1 (≈ 323 µM) | 21.1 ± 1.24 (≈ 88.7 µM) | – | – | – | COc1ccc(C(=O)/C=C/c2ccccc2)cc1 [Compound 4, 1-(4-Methoxyphenyl)-3-phenylpropenone] | 57.3 ± 3.8 (≈ 240 µM) | – | –
10 | > 100 | > 100 | > 100 | > 100 | – | – | – | COc1ccc(C(=O)/C=C/c2ccccc2Cl)cc1 [Compound 8, 3-(2-Chlorophenyl)-1-(4-methoxy-phenyl)propenone] | > 100 | – | low cytotoxic effects
11 | 9.53 ± 1.99 (≈ 37.8 µM) | 15.8 ± 2.1 (≈ 62.5 µM) | 31.8 ± 1.5 (≈ 126 µM) | 9.87 ± 0.71 (≈ 39.1 µM) | 74 to 75 | – | < 20 | COc1ccc(C(=O)/C=C/c2cccc(C)c2)cc1 [Compound 12, 1-(4-Methoxyphenyl)-3-m-tolylpropenone] | 11.1 ± 1.8 (≈ 44.1 µM) | – | –

Source: paper PMC6268294, “Synthesis of Chalcones with Anticancer Activities” (Molecules, 2012)
